Experimental findings from patent publication US9896441B2 (Lycera Corporation, priority 2014, dated 2018) are described below.

This assay concerns the target T1, Gal4-RORγ-LBD (Homo sapiens, UniProt P51449).
T1 construct: expressed in transfected cells
T1 sequence (P51449 269-508 limits assumed): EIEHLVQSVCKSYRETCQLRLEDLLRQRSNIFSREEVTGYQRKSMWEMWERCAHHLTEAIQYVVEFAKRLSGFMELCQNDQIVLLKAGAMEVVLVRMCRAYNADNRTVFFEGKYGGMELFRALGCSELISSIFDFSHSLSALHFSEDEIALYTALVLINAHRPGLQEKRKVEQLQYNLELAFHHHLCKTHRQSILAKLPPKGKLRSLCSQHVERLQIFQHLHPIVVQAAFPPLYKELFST
As to the kind of experiment: Gal4-RORγ Luciferase Reporter Assay in HEK-293T Cells. It counts as cell-based. The note with it: HEK-293 cells, luciferase reporter; for Gal4-RORγ Assay Max Response: maximum response. How it is done:
Assay procedures and results are described below.
In the following protocol, HEK-293 cells were transfected with a construct comprising the Gal4 DNA binding domain fused to the ligand binding domain of RORγ (Gal4-RORγ-LBD) in a pcDNA3.1neo plasmid, and also with a reporter construct comprising pGL4.31 Gal4-luciferase (Promega). Control cells were prepared similarly using empty pcDNA3.1neo and pGL4.31 vectors.
Trans-IT reagent (Mirus, 60 μL) at room temperature was added drop wise to OptiMEM (Invitrogen, 1.5 ml). This reagent mixture was mixed by inversion then incubated for 5 to 30 minutes at room temperature. It then was added to a solution of both expression vectors (5 μg each), mixed, and incubated at room temperature for about 20 minutes. HEK-293 cells were harvested from incubation flasks by removing the media, treating with TrypLE Express (Invitrogen), and incubating until the cells detached from the bottom of the flask (approximately 2-5 minutes). 10 Million cells were collected by centrifugation and re-suspended in 10 mL of Dulbecco's Modified Eagle Medium, High Glucose (DMEM, Invitrogen) containing 10% Fetal Bovine Serum and 100 IU each of penicillin and streptomycin. The re-suspended cells and the transfection mixture were added to a T75 flask, mixed and incubated overnight at 37° C. and 5% CO2.
The cells were harvested as described above, counted, and centrifuged to obtain the desired number of cells, then re-suspended in complete growth media at 0.75×10^6 cells/mL. The RORγ antagonist, ursolic acid, was added to the cells at a final concentration of […]. Cells were plated at 20 µL of cell suspension/well (10,000-15,000 cells/well) in white tissue culture treated 384 well plates. Test compounds were dissolved at 10 mM in DMSO then diluted into complete growth medium to 5× the final intended test concentration. These drug stock solutions, 5 µL/well were added to the tissue culture plate. The final DMSO concentration was 0.2%. The plates were briefly centrifuged then incubated overnight at 37° C. and 5% CO2. To conduct the assay, the tissue culture plates were allowed to equilibrate to room temperature and One-Glo luciferase reagent (Promega, 25 µL/well) was added. The plates were briefly centrifuged then incubated at room temperature for 10 minutes. The luciferase intensity was read on an Envision plate reader (Perkin Elmer). […] The luciferase signal in the absence of ursolic acid or test compound is defined at 100. The Max Response is the upper plateau in the signal as determined by line-fit using a 4-parameter logistic model in PRISM (GraphPad).
(In general: In a reporter assay the amount or activity of a reporter protein is the signal.)

For orientation: EC50 means the concentration needed to bring the measured effect to its halfway point.

Some results are limits rather than exact numbers.

Regarding `CC/C(=C\c1ccc2c(c1)N(S(=O)(=O)c1cccc(C(F)(F)F)c1)C[C@H](CCC(=O)O)O2)c1ccccc1Cl` [Example 36A, (S,E)-3-(6-(2-(2-chlorophenyl)but-1-en-1-yl)-4-((3-(trifluoromethyl)-phenyl)sulfonyl)-3,4-dihydro-2H-benzo[b][1,4]oxazin-2-yl)propanoic acid], the EC50 (with ursolic acid) is < 500 nM.

In the case of `CC/C(=C\c1ccc2c(c1)N(S(=O)(=O)c1cccc(C(F)(F)F)c1)C[C@H](CCC(=O)OC)O2)c1ccccc1` [Example 36B, methyl (S,E)-3-(6-(2-phenylbut-1-en-1-yl)-4-((3-(trifluoromethyl)-phenyl)sulfonyl)-3,4-dihydro-2H-benzo[b][1,4]oxazin-2-yl)propanoate], the EC50 (with ursolic acid) is > 10000 nM.

`O=C(O)CC[C@H]1CN(S(=O)(=O)c2cccc(C(F)(F)F)c2)c2cc(/C=C3\CCc4ccccc43)ccc2O1` [Example 38C, (S,E)-3-(6-((2,3-dihydro-1H-inden-1-ylidene)methyl)-4-((3-(trifluoromethyl)phenyl)sulfonyl)-3,4-dihydro-2H-benzo[b][1,4]-oxazin-2-yl)propanoic acid] yielded an EC50 (with ursolic acid) of 500 to 5000 nM.

Where the note is “with ursolic acid”, `CCOc1nn2c(c1S(=O)(=O)N1C[C@H](CCC(=O)OC)Oc3ccc(/C=C(\C)c4c(F)cccc4Cl)cc31)CCCC2` [Example 65, Methyl (S,E)-3-(6-(2-(2-chloro-6-fluorophenyl)prop-1-en-1-yl)-4-((2-ethoxy-4,5,6,7-tetrahydropyrazolo[1,5-a]pyridin-3-yl)sulfonyl)-3,4-dihydro-2H-benzo[b][1,4]oxazin-2-yl)propanoate] returned an EC50 of 500 to 5000 nM.

With `CCOc1nn2c(c1S(=O)(=O)N1C[C@H](CCC(=O)O)Oc3ccc(/C=C(\C)c4c(F)cccc4Cl)cc31)CCCC2` [Example 66, (S,E)-3-(6-(2-(2-Chloro-6-fluorophenyl)prop-1-en-1-yl)-4-((2-ethoxy-4,5,6,7-tetrahydropyrazolo[1,5-a]pyridin-3-yl)sulfonyl)-3,4-dihydro-2H-benzo[b][1,4]oxazin-2-yl)propanoic acid], for the setting “with ursolic acid”, the EC50 was < 500 nM.

For the compound `C/C(=C\c1ccc2c(c1)N(S(=O)(=O)c1cccc(C(F)(F)F)c1)C[C@H](CCC(=O)O)O2)c1c(Cl)cccc1Cl` [Example 86AE, (S,E)-3-(6-(2-(2,6-dichlorophenyl)prop-1-en-1-yl)-4-((3-(trifluoromethyl)phenyl)-sulfonyl)-3,4-dihydro-2H-benzo[b][1,4]oxazin-2-yl)propanoic acid], the EC50 (with ursolic acid) is < 500 nM.

Consider `COC(=O)CC[C@H]1CN(S(=O)(=O)c2cccc(C(F)(F)F)c2)c2cc(/C=C(\C)c3ccccc3OC)ccc2O1` [Example 86AJ, (S,E)-methyl 3-(6-(2-(2-methoxyphenyl)prop-1-en-1-yl)-4-((3-(trifluoromethyl)phenyl)sulfonyl)-3,4-dihydro-2H-benzo[b][1,4]-oxazin-2-yl)propanoate], for which the EC50 (with ursolic acid) is < 500 nM.

For the compound `C/C(=C\c1ccc2c(c1)N(S(=O)(=O)c1cc(F)cc(C(F)(F)F)c1)C[C@H](CCC(=O)O)O2)c1c(F)cccc1Cl` [Example 86AQ, (S,E)-3-(6-(2-(2-chloro-6-fluorophenyl)-prop-1-en-1-yl)-4-((3-fluoro-5-(trifluoromethyl)-phenyl)sulfonyl)-3,4-dihydro-2H-benzo[1,4]oxazin-2-yl)propanoic acid], for the setting “with ursolic acid”, the EC50 was < 500 nM.

In the case of `CC(C)c1ccccc1/C=C/c1ccc2c(c1)N(S(=O)(=O)c1cccc(C(F)(F)F)c1)C[C@H](CCC(=O)O)O2` [Example 89CB, (S,E)-3-(6-(2-isopropylstyryl)-4-((3-(trifluoromethyl)-phenyl)-sulfonyl)-3,4-dihydro-2H-benzo[b][1,4]oxazin-2-yl)propanoic acid], for the setting “with ursolic acid”, the EC50 fell in the range of 500 to 5000 nM.

Take `COC(=O)CC[C@H]1CN(S(=O)(=O)c2cccc(C(F)(F)F)c2)c2cc(/C=C/c3cccnc3C(F)(F)F)ccc2O1` [Example 89DF, methyl (S,E)-3-(4-((3-(trifluoromethyl)phenyl)-sulfonyl)-6-(2-(2-(trifluoromethyl)pyridin-3-yl)vinyl)-3,4-dihydro-2H-benzo[b][1,4]oxazin-2-yl)propanoate]: the EC50 (with ursolic acid) is > 10000 nM.

Take `COC(=O)CC[C@H]1CN(S(=O)(=O)c2cccc(C(F)(F)F)c2)c2cc(/C=C/c3ncccc3F)ccc2O1` [Example 89DG, methyl (S,E)-3-(6-(2-(3-fluoropyridin-2-yl)vinyl)-4-((3-(trifluoromethyl)phenyl)-sulfonyl)-3,4-dihydro-2H-benzo[b][1,4]oxazin-2-yl)propanoate]: the EC50 (with ursolic acid) was > 10000 nM.

Take `O=C(O)CC[C@H]1CN(S(=O)(=O)c2cccc(C(F)(F)F)c2)c2cc(/C=C3\CCCOC3)ccc2O1` [Example 95I, (S,E)-3-(6-((dihydro-2H-pyran-3(4H)-ylidene)methyl)-4-((3-(trifluoromethyl)phenyl)sulfonyl)-3,4-dihydro-2H-benzo[b][1,4]oxazin-2-yl)propanoic acid]: the EC50 (with ursolic acid) was in the range of 500 to 5000 nM.

On to `C/C(=C\c1ccc2c(c1)N(S(=O)(=O)c1cccc(C(F)(F)F)c1)C[C@H](CCC(=O)N1C3CCC1COC3)O2)c1c(F)cccc1Cl` [Example 127K, 1-(3-oxa-8-azabicyclo-[3.2.1]octan-8-yl)-3-((S)-6-((E)-2-(2-chloro-6-fluorophenyl)prop-1-en-1-yl)-4-((3-(trifluoro-methyl)phenyl)sulfonyl)-3,4-dihydro-2H-benzo[b][1,4]oxazin-2-yl)propan-1-one], for which the “Gal4-RORγ Assay Max Response” value (in presence of ursolic acid) is on record as “** (a value in the range of greater than 90 to 150)”.

Turning to `C/C(=C\c1ccc2c(c1)N(S(=O)(=O)c1cccc(C(F)(F)F)c1)C[C@H](CCC(=O)N1CC(O)C1)O2)c1c(F)cccc1Cl` [Example 127L, (S,E)-3-(6-(2-(2-chloro-6-fluorophenyl)prop-1-en-1-yl)-4-((3-(trifluoro-methyl)phenyl)sulfonyl)-3,4-dihydro-2H-benzo[b][1,4]oxazin-2-yl)-1-(3-hydroxyazetidin-1-yl)propan-1-one], the “Gal4-RORγ Assay Max Response” value (in presence of ursolic acid) is given as “* (a value in the range of 30 to 90)”.

`C/C(=C\c1ccc2c(c1)N(S(=O)(=O)c1cccc(C(F)(F)F)c1)C[C@H](CCC(=O)N1CC(C#N)C1)O2)c1c(F)cccc1Cl` [Example 127M, (S,E)-1-(3-(6-(2-(2-chloro-6-fluorophenyl)-prop-1-en-1-yl)-4-((3-(trifluoromethyl)phenyl)-sulfonyl)-3,4-dihydro-2H-benzo[b][1,4]oxazin-2-yl)propanoyl)azetidine-3-carbonitrile]: under “in presence of ursolic acid”, the EC50 is < 500 nM and the “Gal4-RORγ Assay Max Response” value is given as “** (a value in the range of greater than 90 to 150)”.

Take `CC(=O)NC1CN(C(=O)CC[C@H]2CN(S(=O)(=O)c3cccc(C(F)(F)F)c3)c3cc(/C=C(\C)c4c(F)cccc4Cl)ccc3O2)C1` [Example 127N, (S,E)-N-(1-(3-(6-(2-(2-chloro-6-fluorophenyl)-prop-1-en-1-yl)-4-((3-(trifluoromethyl)phenyl)-sulfonyl)-3,4-dihydro-2H-benzo[b][1,4]oxazin-2-yl)propanoyl)azetidin-3-yl)acetamide]: for the setting “in presence of ursolic acid”, the EC50 is < 500 nM and the “Gal4-RORγ Assay Max Response” value is reported as “** (a value in the range of greater than 90 to 150)”.

Consider `C/C(=C\c1ccc2c(c1)N(S(=O)(=O)c1cccc(C(F)(F)F)c1)C[C@H](CCC(=O)NCCC(=O)O)O2)c1c(F)cccc1Cl` [Example 129P, (S,E)-3-(3-(6-(2-(2-chloro-6-fluorophenyl)-prop-1-en-1-yl)-4-((3-(trifluoromethyl)phenyl)-sulfonyl)-3,4-dihydro-2H-benzo[b][1,4]oxazin-2-yl)propanamido)-propanoic acid], for which, under “in presence of ursolic acid”, the EC50 was < 500 nM and the “Gal4-RORγ Assay Max Response” value was “*** (a value in the range of greater than 150 to 200)”.

Consider `COc1cc(S(=O)(=O)N2C[C@H](CCC(=O)O)Oc3ccc(/C=C(\C)C4CCCCC4)cc32)ccc1F` [Example 190, (S,E)-3-(6-(2-cyclohexylprop-1-en-1-yl)-4-((4-fluoro-3-methoxyphenyl)sulfonyl)-3,4-dihydro-2H-benzo[b][1,4]oxazin-2-yl)propanoic acid], for which the EC50 (in presence of ursolic acid) is > 10000 nM.
